Assay results taken from patent US7763615B2, “Ecteinascidin analogs for use as antitumour agents” (priority 2001, dated 2010).
Where two headings read alike, the source gives them in different places.

Tests used:
HT29 = test: cells; type: cell-based; settings: for GI50 / IC (TGI) / CC50 / TGI: HT29, 48 hours exposure, SRB; for CC50: read-out: LC50 (the source's name)
Excerpt: (§1) The finality of these assays is to interrupt the growth of a “in vitro” tumor cell culture by means of a continued exhibition of the cells to the sample to be testing.
(§2) A colorimetric type of assay, using sulphorhodamine B (SRB) reaction has been adapted for a quantitative measurement of cell growth and viability [following the technique described by Philip Skehan, et al. (1990), New colorimetric cytotoxicity assay for anticancer drug screening, J. Natl. Cancer Inst., 82:1107-1112]
(§3) This form of the assay employs 96 well cell culture microplates of 9 mm diameter (Faircloth, 1988; Mosmann, 1983). Most of the cell lines are obtained from American Type Culture Collection (ATCC) derived from different human cancer types.
(§4) Cells are maintained in RPMI 1640 10% FBS, supplemented with 0.1 g/l penicillin and 0.1 g/l streptomycin sulphate and then incubated at 37° C., 5% CO2 and 98% humidity. For the experiments, cells were harvested from subconfluent cultures using trypsin and resuspended in fresh medium before plating.
(§5) Cells are seeded in 96 well microtiter plates, at 5×10^3 cells per well in aliquots of 195 μl medium, and they are allowed to attach to the plate surface by growing in drug free medium for 18 hours. Afterward, samples are added in aliquots of 5 μl in a ranging from 10 to 10^−8 μg/ml, dissolved in DMSO/EtOH/PBS (0.5:0.5:99). After 48 hours exposure, the antitumor effect are measured by the SRB methodology: cells are fixed by adding 50 μl of cold 50% (wt/vol) trichloroacetic acid (TCA) and incubating for 60 minutes at 4° C. Plates are washed with deionized water and dried. One hundred μl of SRB solution (0.4% wt/vol in 1% acetic acid) is added to each microtiter well and incubated for 10 minutes at room temperature. Unbound SRB is removed by washing with 1% acetic acid. Plates are air dried and bound stain is solubilized with Tris buffer. Optical densities are read on a automated spectrophotometric plate reader at a single wavelength of 490 nm.
(§6) The values for mean+/− SD of data from triplicate wells are calculated. Some parameters for cellular responses can be calculated: GI=growth inhibition, TGI=total growth inhibition (cytostatic effect) and LC=cell killing (cytotoxic effect).

A549 = test: cells; type: cell-based; settings: for GI50 / CC50 / IC (TGI) / TGI: A549, 48 hours exposure, SRB; for GI50: read-out: GI50; for CC50: read-out: LC50 (the source's name); for IC (TGI): read-out: TGI
Excerpt: as §1, §2, §3, §4, §5, §6

Structure (SMILES)	IC50 (HT29; Homo sapiens, HT-29, HT29) [nM]	IC50 (A549; Homo sapiens, A549) [nM]	GI50 (HT29; Homo sapiens, HT-29, 48 h) [nM]	IC (TGI) (HT29; Homo sapiens, HT-29, 48 h) [µM]	CC50 (HT29; Homo sapiens, HT-29, 48 h) [µM]	GI50 (A549; Homo sapiens, A549, 48 h) [nM]	CC50 (A549; Homo sapiens, A549, 48 h) [µM]	IC (TGI) (A549; Homo sapiens, A549, 48 h) [µM]	GI50 (HT29) [nM]	TGI (HT29) [Molar]	CC50 (HT29) [µM]	TGI (A549) [Molar]	GI50 (A549) [nM]	CC50 (A549) [µM]
COc1c(C)cc2c(c1O)[C@@H]1C3[C@@H]4SC[C@]5(NCCc6c5[nH]c5ccccc65)C(=O)COC[C@@H](c5c6c(c(C)c(OC(C)=O)c54)OCO6)N3[C@@H](C#N)[C@H](C2)N1C (some centres unmarked) [Compound 1]	1.31	1.31	–	–	–	–	–	–	–	–	–	–	–	–
COc1ccc2[nH]c3c(c2c1)CCN[C@]31CS[C@@H]2c3c(OC(C)=O)c(C)c4c(c3[C@H](COCC1=O)N1C2[C@H]2c3c(cc(C)c(OC)c3O)C[C@@H]([C@@H]1C#N)N2C)OCO4 (some centres unmarked) [Compound 2]	–	–	1.26	0.00126	63	0.63	63	0.0063	–	–	–	–	–	–
COc1c(C)cc2c(c1O)[C@@H]1C3[C@@H]4SC[C@]5(NCCc6c5[nH]c5c(OCc7ccccc7)cccc65)C(=O)COC[C@@H](c5c6c(c(C)c(OC(C)=O)c54)OCO6)N3[C@@H](C#N)[C@H](C2)N1C (some centres unmarked) [Compound 3]	–	–	230	0.23	57.5	345	57.5	3.45	–	–	–	–	–	–
COc1c(C)cc2c(c1O)[C@@H]1C3[C@@H]4SC[C@]5(NCCc6c5[nH]c5ccc(OCc7ccccc7)cc65)C(=O)COC[C@@H](c5c6c(c(C)c(OC(C)=O)c54)OCO6)N3[C@@H](C#N)[C@H](C2)N1C (some centres unmarked) [Compound 4]	–	–	2300	2.3	11.5	2300	11.5	6.9	–	–	–	–	–	–
COc1c(C)cc2c(c1O)[C@@H]1C3[C@@H]4SC[C@]5(NCCc6c5[nH]c5ccc(C)cc65)C(=O)COC[C@@H](c5c6c(c(C)c(OC(C)=O)c54)OCO6)N3[C@@H](C#N)[C@H](C2)N1C (some centres unmarked) [Compound 5]	–	–	12.9	0.0129	5.14	12.9	12.9	0.129	–	–	–	–	–	–
COc1c(C)cc2c(c1O)[C@@H]1C3[C@@H]4SC[C@]5(NCCc6c5[nH]c5ccc(O)cc65)C(=O)COC[C@@H](c5c6c(c(C)c(OC(C)=O)c54)OCO6)N3[C@@H](C#N)[C@H](C2)N1C (some centres unmarked) [Compound 6]	–	–	5.13	0.00513	5.13	5.13	12.8	0.0513	–	–	–	–	–	–
COc1c(C)cc2c(c1O)[C@@H]1C3[C@@H]4SC[C@]5(NCCc6c5[nH]c5cc(F)ccc65)C(=O)COC[C@@H](c5c6c(c(C)c(OC(C)=O)c54)OCO6)N3[C@@H](C#N)[C@H](C2)N1C (some centres unmarked) [Compound 7]	–	–	63.9	0.0639	1.28	767	1.28	0.128	–	–	–	–	–	–
COc1c(C)cc2c(c1O)[C@@H]1C3[C@@H]4SC[C@]5(C(=O)COC[C@@H](c6c7c(c(C)c(OC(C)=O)c64)OCO7)N3[C@@H](C#N)[C@H](C2)N1C)c1[nH]c2ccc(O)cc2c1CCN5C (some centres unmarked) [Compound 8]	–	–	2.52	0.00252	5.04	2.52	12.6	0.0101	–	–	–	–	–	–
COc1ccc2c3c([nH]c2c1)[C@@]1(CS[C@@H]2c4c(OC(C)=O)c(C)c5c(c4[C@H](COCC1=O)N1C2[C@H]2c4c(cc(C)c(OC)c4O)C[C@@H]([C@@H]1C#N)N2C)OCO5)NCC3 (some centres unmarked) [Compound 9]	–	–	378	0.378	12.6	25.2	8.82	0.101	–	–	–	–	–	–
COc1c(C)cc2c(c1O)[C@@H]1C3[C@@H]4SC[C@]5(NCCc6c5[nH]c5ccc(F)cc65)C(=O)COC[C@@H](c5c6c(c(C)c(OC(C)=O)c54)OCO6)N3[C@@H](C#N)[C@H](C2)N1C (some centres unmarked) [Compound 10]	–	–	40.3	12.8	12.8	39.1	12.8	0.128	–	–	–	–	–	–
COc1c(C)cc2c(c1O)[C@@H]1C3[C@@H]4SC[C@]5(NCCc6c5[nH]c5c(C)cccc65)C(=O)COC[C@@H](c5c6c(c(C)c(OC(C)=O)c54)OCO6)N3[C@@H](C#N)[C@H](C2)N1C (some centres unmarked) [Compound 11]	–	–	30.9	0.129	12.9	18.9	0.129	0.05	–	–	–	–	–	–
COc1c(C)cc2c(c1O)[C@@H]1C3[C@@H]4SC[C@]5(NC(C)Cc6c5[nH]c5ccc(O)cc65)C(=O)COC[C@@H](c5c6c(c(C)c(OC(C)=O)c54)OCO6)N3[C@@H](C#N)[C@H](C2)N1C (some centres unmarked) [Compound 12]	–	–	–	–	12.6	7.28	12.6	0.0835	13.7	1.26E−07	–	–	–	–
COc1c(C)cc2c(c1O)[C@@H]1C3[C@@H]4SC[C@]5(NC(C)Cc6c5[nH]c5ccc(O)cc65)C(=O)COC[C@@H](c5c6c(c(C)c(OC(C)=O)c54)OCO6)N3[C@@H](C#N)[C@H](C2)N1C (some centres unmarked) [Compound 13]	–	–	–	–	–	–	–	–	333	1.26E−06	12.6	6.79E−08	6.31	12.6
COc1c(C)cc2c(c1O)[C@@H]1C3[C@@H]4SC[C@]5(C(=O)COC[C@@H](c6c7c(c(C)c(OC(C)=O)c64)OCO7)N3[C@@H](C#N)[C@H](C2)N1C)c1[nH]c2ccccc2c1CCN5C (some centres unmarked) [Compound 15]	–	–	–	–	13.1	–	–	–	4.16	1.31E−08	–	1.31E−08	4.78	1.27
COc1c(C)cc2c(c1O)[C@@H]1C3[C@@H]4SC[C@]5(NC(C)Cc6c5[nH]c5ccc(F)cc65)C(=O)COC[C@@H](c5c6c(c(C)c(OC(C)=O)c54)OCO6)N3[C@@H](C#N)[C@H](C2)N1C (some centres unmarked) [Compound 16]	–	–	42.8	–	12.8	–	4.44	–	–	1.28E−07	–	1.28E−07	36.7	–
COc1c(C)cc2c(c1O)[C@@H]1C3[C@@H]4SC[C@]5(NC(C)Cc6c5[nH]c5ccc(F)cc65)C(=O)COC[C@@H](c5c6c(c(C)c(OC(C)=O)c54)OCO6)N3[C@@H](C#N)[C@H](C2)N1C (some centres unmarked) [Compound 17]	–	–	–	–	–	–	–	–	22.2	1.28E−08	12.8	4.41E−08	5.39	6.67
COc1c(C)cc2c(c1O)[C@@H]1C3[C@@H]4SC[C@]5(NC(C)Cc6c5[nH]c5ccccc65)C(=O)COC[C@@H](c5c6c(c(C)c(OC(C)=O)c54)OCO6)N3[C@@H](C#N)[C@H](C2)N1C (some centres unmarked) [Compound 18]	–	–	5.62	0.129	12.9	–	12.9	–	–	–	–	1.29E−07	6.77	–
COc1c(C)cc2c(c1O)[C@@H]1C3[C@@H]4SC[C@]5(NC(C)Cc6c5[nH]c5ccccc65)C(=O)COC[C@@H](c5c6c(c(C)c(OC(C)=O)c54)OCO6)N3[C@@H](C#N)[C@H](C2)N1C (some centres unmarked) [Compound 19]	–	–	–	–	–	–	–	–	4.45	1.29E−07	12.9	1.29E−08	3.27	12.9
CCCC(=O)Oc1c(OC)c(C)cc2c1[C@@H]1C3[C@@H]4SC[C@]5(NCCc6c5[nH]c5ccccc65)C(=O)COC[C@@H](c5c6c(c(C)c(OC(C)=O)c54)OCO6)N3[C@@H](C#N)[C@H](C2)N1C (some centres unmarked) [Compound 20]	–	–	596	12	12	330	6.77	1.2	–	–	–	–	–	–
